Laboratory results reported in US20060110401A1, “Mixture of peptides from c and ns3 proteins of the hepatitis c virus and applications thereof” (priority 2002, published 2006).
Like-named read-outs stand apart in the source and are kept apart here. Residues, ends and D or L forms follow the SMILES beside them.

How the values were obtained:
[1] = molecular target: T1, HLA-DRB4 (DRB4*0101) (Homo sapiens, UniProt P01903+P13762, G164S); assay: biochemical; assay type: binding
T1 construct: endogenous in cells; host or cells: homozygous EBV-transformed human B lymphocyte lines; immunopurified with antibody L243

[2] = molecular target: T2, HLA-DRB5 (DRB5*0101) (Homo sapiens, UniProt P01903+Q30154); assay: biochemical; assay type: binding
T2 construct: endogenous in cells; host or cells: homozygous EBV-transformed human B lymphocyte lines; immunopurified with antibody L243

[3] = molecular target: T3, HLA-DR3 (DRB1*0301) (Homo sapiens, UniProt P01903+P01911, A100K/A102G/A103R/A169T/F55Y/I96L/K41T/L162R/M171V/P40S/Q125H/Q178H/Q39Y/R42S/S66N/T106N/T262R/W38E/Y61H); assay: biochemical; assay type: binding; settings: tracer MT 2-16, read-out: IC50, binding to HLA-DR3
T3 construct: endogenous in cells; host or cells: homozygous EBV-transformed human B lymphocyte lines; immunopurified with antibody L243

[4] = tested on: DR3; assay: DR3
Description: (§1) Table printed on a drawing sheet, Figure 2
Where the first naming reader finds the target: head: DR3

[5] = tested on: DRB5; assay: DRB5
[6] = tested on: DR4; assay: DR4
[7] = tested on: DR15; assay: DR15
[8] = tested on: T lymphocytes derived from PBMCs from patients chronically infected with HCV; assay type: cell-based, human; settings: supernatant 48 h, —: not detected
[9] = molecular target: T4, HLA-DR4 (DRB1*0401) (Homo sapiens, UniProt P01903+P01911, A100K/A169T/F76Y/I96L/K127E/L162R/M171V/N62H/P40V/Q125Y/R42H/S133A/S149N/S66Y/V115G/V209L/W38E); assay: biochemical; assay type: binding
T4 construct: endogenous in cells; host or cells: homozygous EBV-transformed human B lymphocyte lines; immunopurified with antibody L243

[10] = molecular target: T5, HLA-DR1 (DRB1*0101) (Homo sapiens, UniProt P01903+P01911, A100R/D57E/F55L/F60I/F76Y/I96L/L162R/M171V/P40L/Q125E/R42F/V115G/Y59C); assay: biochemical; assay type: binding; settings: DRB1*0101
T5 construct: endogenous in cells; host or cells: homozygous EBV-transformed human B lymphocyte lines; immunopurified with antibody L243

[11] = tested on: DP402; assay: DP402
[12] = molecular target: HLA-DR11 (DRB1*1101) (Homo sapiens, UniProt P01903+P01911, A100R/A169T/A87E/I96F/K41T/L162R/M171V/P40S/Q125H/Q178H/Q39Y/Q99D/R42S/S66Y/T262R/V115G/W38E); assay: biochemical; assay type: binding
Sequence of HLA-DR11 (DRB1*1101) (P01903 26-254 limits assumed, other chains not shown): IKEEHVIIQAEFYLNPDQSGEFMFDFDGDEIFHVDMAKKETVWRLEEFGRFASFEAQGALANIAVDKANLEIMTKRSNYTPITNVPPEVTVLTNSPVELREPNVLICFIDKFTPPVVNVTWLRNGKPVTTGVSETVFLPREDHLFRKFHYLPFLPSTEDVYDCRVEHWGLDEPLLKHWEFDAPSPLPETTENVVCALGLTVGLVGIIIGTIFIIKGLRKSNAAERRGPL

[13] = molecular target: HLA-DR13 (DRB1*1301) (Homo sapiens, UniProt P01903+P01911, A100E/A169T/K41T/L162R/M171V/P40S/Q125H/Q178H/Q39Y/Q99D/R42S/S66N/T262R/W38E/Y61H); assay: biochemical; assay type: binding
[14] = molecular target: HLA-DR7 (DRB1*0701) (Homo sapiens, UniProt P01903+P01911, A100R/A102G/A103Q/D57E/D86V/E43K/F76Y/K127E/L162R/M171V/P40G/Q125H/Q99D/R33Q/R42Y/R54Q/S133A/S66F/T210M/V115G/Y107V/Y59L/Y89S); assay: biochemical; assay type: binding
[15] = tested on: DR1; assay: DR1
[16] = tested on: DP401; assay: DP401
[17] = tested on: DRB4; assay: DRB4
Description: as §1
Where the first naming reader finds the target: head: DRB4

[18] = molecular target: T6, HLA-DR15 (DRB1*1501) (Homo sapiens, UniProt P01903+P01911); assay: biochemical; assay type: binding
T6 construct: endogenous in cells; host or cells: homozygous EBV-transformed human B lymphocyte lines; immunopurified with antibody L243

[19] = tested on: CD4+ T lymphocyte lines derived from a seronegative individual; assay: IFN-γ ELISPOT after in vitro immunization; assay type: cell-based, human; settings: after 4 restimulations; for response of line P014/A (T lymphocytes secreting IFN-γ): FIG. 5A; for response of line P014/C (T lymphocytes secreting IFN-γ): FIG. 5C
Method: The ability of the peptides having good affinity for the HLA II molecules to induce stimulation of specific T lymphocytes in vitro was evaluated using blood samples from individuals seronegative for HCV. This involves evaluating the ability to recruit CD4+ precursor lymphocytes although they are, in a naïve individual, at very low frequency, i.e. to carry out an immunization in vitro by means of these peptides.
Peripheral blood mononuclear cells (PBMCs) were separated on a Ficoll gradient. The PBMCs were then cultured in AIM V medium (Life Technologies) and incubated in flasks, in an incubator at 37° C. in the presence of 5% of CO2. After overnight incubation, the non-adherent cells were recovered and loaded onto an LS+column (Miltenyi), and the CD4+ T lymphocytes thus purified were then frozen. The adherent cells were incubated for 5 days in AIM V medium containing 1000 U/ml of GM-CSF and 1000 U/ml of IL-4, and the cells that had differentiated into dendritic cells were then cultured for 2 days in the presence of 1 μg/ml of LPS, 1000 U/ml of IL-4 and 1000 U/ml of GM-CSF, so as to induce their maturation.
The mature dendritic cells (100 000 cells/well) were then incubated with a mixture of peptides (10 μg of each peptide), for 5 hours at 37° C. The mature dendritic cells were subsequently washed and then incubated, in the presence of the CD4+ T lymphocytes (100 000 cells/well) thawed beforehand, in medium containing 1000 U/ml of IL-6 and 10 ng/ml of IL-12. After 7 days, the culture was restimulated a first time by means of mature dendritic cells that had been thawed and loaded with the mixture of peptides beforehand, in medium containing IL-2 (10 U/ml) and IL-7 (5 ng/ml). 7 days later, the culture was restimulated, in a similar manner, in a medium containing no IL-2. After two further stimulations, under the above conditions, the cells were assayed by ELISPOT, in the following way:
[…]. After washing with PBS buffer and then with PBS/0.05% Tween, 100 μl of biotin-conjugated anti-IFNγ secondary antibody (7-B6-1-biotin, Mabtech), diluted to 1 μg/ml in PBS containing 0.05% Tween 20 and 1% BSA, were added to each well. After incubation for one hour, the plates were washed again, and incubated with 100 μl/well of Extravidin-AKP (No. 2636, SIGMA), diluted to 1/5000 in PBS containing 0.05% Tween 20 and 1% BSA. The immunoenzymatic reaction was then visualized by means of the kit No. 170-6432 (Biorad).

[20] = tested on: DRB3; assay: DRB3
[21] = tested on: DR7; assay: DR7
[22] = tested on: DR13; assay: DR13
Description: as §1
Where the first naming reader finds the target: head: DR13

[23] = molecular target: HLA-DP402 (DPB1*0402) (Homo sapiens, UniProt P04440+P20036, A65V/A84D/A85E/L207M); assay: biochemical; assay type: binding; settings: DP*0402; read-out: binds with good affinity to DP402
[24] = tested on: DR11; assay: DR11
Description: as §1
Where the first naming reader finds the target: head: DR11

[25] = read-out: binds with good affinity to DRB5
[26] = read-out: binds with good affinity to DR1
[27] = read-out: binds with good affinity to DR11

Compound: CC[C@H](C)[C@H](NC(=O)[C@H](CS)NC(=O)CNC(=O)[C@H](CC(C)C)NC(=O)[C@H](CC(C)C)NC(=O)CNC(=O)[C@H](CCCNC(=N)N)NC(=O)[C@@H](N)[C@@H](C)O)C(=O)N[C@H](C(=O)N[C@H](C(=O)N[C@@H](CO)C(=O)N[C@@H](CC(C)C)C(=O)N[C@H](C(=O)NCC(=O)N[C@@H](CCCNC(=N)N)C(=O)N[C@@H](CC(=O)O)C(=O)N[C@@H](CCCCN)C(=O)N[C@@H](CC(N)=O)C(=O)N[C@@H](CCC(N)=O)C(=O)N[C@H](C(=O)O)C(C)C)[C@@H](C)O)[C@@H](C)O)[C@@H](C)CC [9N 1036-1055] (H-TRGLLGCIITSLTGRDKNQV-OH; N-terminus and C-terminus assumed)
- IC50 ([1]; read-out: binds with good affinity to DRB4): < 1 µM
- IC50 ([1]; tracer E2/E168, read-out: IC50, binding to HLA-DRB4): 1 µM
- IC50 [2, 25]: < 1 µM
- IC50 ([2]; tracer HA 306-318, read-out: IC50, binding to HLA-DRB5): 0.053 µM
- IC50 [3]: > 100 µM
- IC50 [4]: 6 µM
- IC50 [5]: 0.01 µM
- IC50 [6]: 0.06 µM
- IC50 [7]: 10 µM
- IL10 ([8]; patient 067): 58 pg/mL
- IL10 ([8]; patient 078): 58 pg/mL
- IL10 ([8]; patient 659): 18 pg/mL
- IL10 ([8]; patient 815): 156 pg/mL
- IL2 ([8]; patient 862): 29.1 pg/mL
- IC50 ([9]; read-out: binds with good affinity to DR4): < 1 µM
- IC50 ([9]; tracer HA 306-318, read-out: IC50, binding to HLA-DR4): 0.95 µM
- IC50 ([10]; competition with biotinylated tracer HA 306-318, read-out: IC50, binding to HLA-DR1): 0.051 µM
- IC50 [10, 26]: < 1 µM
- IC50 [11]: 4.58 µM
- IC50 [12, 27]: < 1 µM
- IC50 ([12]; tracer HA 306-318, read-out: IC50, binding to HLA-DR11): 0.7 µM
- IC50 ([13]; tracer B1 21-36, read-out: IC50, binding to HLA-DR13): > 100 µM
- IC50 ([14]; read-out: IC50, binding to HLA-DR7): 2.6 µM
- IC50 [15]: 0.093 µM
- IC50 [16]: 5.33 µM
- IC50 [17]: 0.15 µM
- IC50 ([18]; read-out: IC50, binding to HLA-DR15): 5.5 µM

Compound: GIFRAAVCTRGVAKA [15N 1178-1192]
- response of line P014/A (T lymphocytes secreting IFN-γ) [19]: responds
- response of line P014/C (T lymphocytes secreting IFN-γ) [19]: responds

Compound: VSKGWRLLAPITAYA [8N 1019-1033]
- response of line P014/B (T lymphocytes secreting IFN-γ) ([19]; line P014/B, FIG. 5B): responds

Compound: KVLVLNPSVAATLGF [18N 1250-1264]
- response of line P014/A (T lymphocytes secreting IFN-γ) [19]: responds

Compound: CC[C@H](C)[C@H](NC(=O)[C@H](CCC(N)=O)NC(=O)CNC(=O)CNC(=O)CNC(=O)[C@@H]1CCCN1C(=O)[C@H](Cc1ccccc1)NC(=O)[C@H](CCCCN)NC(=O)[C@@H](NC(=O)[C@H](CC(=O)O)NC(=O)[C@H](CCC(N)=O)NC(=O)[C@@H]1CCCN1)C(C)C)C(=O)N[C@H](C(=O)NCC(=O)NCC(=O)N[C@H](C(=O)N[C@@H](Cc1ccc(O)cc1)C(=O)N[C@@H](CC(C)C)C(=O)N[C@@H](CC(C)C)C(=O)N1CCC[C@H]1C(=O)N[C@@H](CCCNC(=N)N)C(=O)N[C@@H](CCCNC(=N)N)C(=O)NCC(=O)N1CCC[C@H]1C(=O)N[C@@H](CCCNC(=N)N)C(=O)N[C@@H](CC(C)C)C(=O)NCC(=O)N[C@H](C(=O)N[C@@H](CCCNC(=N)N)C(=O)O)C(C)C)C(C)C)C(C)C [1C 19-47]
- IC50 [20]: > 100 µM
- IC50 [2, 25]: < 1 µM
- IC50 [4]: > 100 µM
- IC50 [5]: 0.009 µM
- IC50 [6]: 70 µM
- IC50 [7]: 0.158 µM
- IC50 [10, 26]: < 1 µM
- IC50 [12, 27]: < 1 µM
- IC50 ([13]; read-out: binds with good affinity to DR13): < 1 µM
- IC50 [21]: 0.483 µM
- IC50 ([14]; read-out: binds with good affinity to DR7): < 1 µM
- IC50 [22]: 0.288 µM
- IC50 [23]: < 1 µM
- IC50 [16]: 4.52 µM
- IC50 [17]: 6 µM
- IC50 ([18]; DRB1*1501, read-out: binds with good affinity to DR15): < 1 µM
- IC50 [24]: 0.058 µM

Compound: RLRAYMNTPGLPVAQ [28N 1538-1552]
- response of line P014/C (T lymphocytes secreting IFN-γ) [19]: responds
